In patent US20130089627A1, “METHOD FOR TREATING A CANCER CAUSED BY CANCER STEM CELLS” (NEW BELLUS ENTERPRISES CO., LTD., priority 2011, published 2013):
Blank lines part the entries; values can stand above or below the compound they belong to.

What was measured:
[1] = system: colorectal cancer stem cells (CRC CSC); test: MTT cytotoxicity test, colorectal cancer stem cells; assay type: cell-based
Excerpt: (§1) The purpose of the present invention is to screen for the A. camphorata extracts with anti-cancer activity. MTT (3-(4,5-dimethylthiazol-2-yl)-2,5-diphenyltetrazolium bromide) assay was used to complete the cytotoxicity test. Human lung cancer stem cells (lung CSC), human Adult fibroblast-1 (AF-1), glioblastoma multiforme cancer stem cells (GBM CSC), human Adult fibroblast-2 (AF-2), head and neck squamous cell carcinoma cancer stem cells (HNSCC CSC), colorectal cancer stem cells (CRC CSC), as well as breast cancer stem cells (Breast CSC), hepatoma cancer stem cells (hepatoma CSC), leukemia cancer stem cells (leukemia CSC) and gastric cancer stem cells (Gastric CSC) are used in cell experiments of the present invention.
(§2) The principle of cytotoxic activity test (MTT assay) is that succinate dehydrogenase in the mitochondria of a living cell can reduce MTT (3-(4,5-dimethylthiazol-2-yl)-2,5-diphenyltetrazolium bromide), and blue-violet formazan was formed under reaction with cytochrome C. Generally, the amount of formazan generated is proportional to the activity of the mitochondria and the number of living cells. After adding dimethyl sulfoxide (DMSO) to dissolve formazan, the number of living cells can be estimated by the optical density (OD) value. […]

[2] = system: oral cancer stem cells (Oral CSC); test: MTT cytotoxicity test, oral cancer stem cells; assay type: cell-based
Excerpt: (§3) The principle of cytotoxic activity test (MTT assay) is that succinate dehydrogenase in the mitochondria of a living cell can reduce MTT (3-(4,5-dimethylthiazol-2-yl)-2,5-diphenyltetrazolium bromide), and blue-violet formazan was formed under reaction with cytochrome C. Generally, the amount of formazan generated is proportional to the activity of the mitochondria and the number of living cells. After adding dimethyl sulfoxide (DMSO) to dissolve formazan, the number of living cells can be estimated by the optical density (OD) value.
(§4) The definition of half maximal inhibitory concentration (IC50) is the concentration for survival rate of 50% under the reaction with drugs or compounds.

[3] = system: Glioblastomas multiform cancer stem cells (GBM CSC); test: MTT cytotoxicity test, GBM cancer stem cells (subline not stated); assay type: cell-based
Excerpt: as §1, §2

[4] = system: Lung adenocarcinoma CD133 positive cancer stem cells; test: MTT cytotoxicity test, lung adenocarcinoma CD133 positive cancer stem cells; assay type: cell-based
Excerpt: as §3, §4

cancer stem cells = test: MTT cytotoxicity tests of 4-acetyl-antroquinonol B, summary in words; assay type: cell-based; conditions: lung adenocarcinoma CD133 positive, oral, GBM, breast and colorectal cancer stem cells
Excerpt: as §3

[5] = system: human lung cancer stem cells (Lung CSC); test: MTT cytotoxicity test, lung cancer stem cells; assay type: cell-based
Excerpt: as §1, §2

[6] = system: breast cancer stem cells (Breast CSC); test: MTT cytotoxicity test, breast cancer stem cells; assay type: cell-based
Excerpt: as §1, §2

[7] = system: colorectal cancer stem cells; test: Co-administration with chemotherapy drugs, colorectal cancer stem cells; assay type: cell-based
Excerpt: as §4
(§5) Cisplatin: cis-diammineplatinum(II) dichloride (Sigma-Aldrich, USA)
(§6) Taxol: Paclitaxel (Sigma-Aldrich, USA)
(§7) According to the pretested half maximal inhibitory concentration (IC50) of D1˜D5, different cancer stem cells were used to test the cytotoxic concentration for (1) the co-administration of A. camphorata extracts with the chemotherapy drug, Cisplatin; (2) the co-administration of A. camphorata extracts with the chemotherapy drug, Taxol.

[8] = system: Head and neck squamous cell carcinoma cancer stem cells; test: Co-administration with chemotherapy drugs, HNSCC cancer stem cells; assay type: cell-based
Excerpt: as §4, §5, §6, §7

[9] = system: Glioblastomas multiform cancer stem cells; test: Co-administration with chemotherapy drugs, GBM cancer stem cells; assay type: cell-based
Excerpt: as §4, §5, §6, §7

breast cancer stem cells = test: Co-administration with chemotherapy drugs, breast cancer stem cells; assay type: cell-based
Excerpt: as §4, §5, §6, §7

[10] = system: Hepatoma cancer stem cells; test: Co-administration with chemotherapy drugs, hepatoma cancer stem cells; assay type: cell-based
Excerpt: as §4, §5, §6, §7

lung cancer stem cells = test: Co-administration with chemotherapy drugs, lung cancer stem cells; assay type: cell-based, human
Excerpt: as §4, §5, §6, §7

SMILES: COC1=C(OC)C(OC(C)=O)C(C/C=C(\C)CCC2(C)CCC(=O)O2)C(C)C1=O (stereo not shown) [4-acetyl-antroquinonol B]
half maximal inhibitory concentration (IC50) of 4-acetyl-antroquinonol B [1]: 9.72 µg/mL
half maximal inhibitory concentration (IC50) of 4-acetyl-antroquinonol B [2]: 14.37 µg/mL
half maximal inhibitory concentration (IC50) of 4-acetyl-antroquinonol B [3]: 18.2 µg/mL
half maximal inhibitory concentration (IC50) of 4-acetyl-antroquinonol B [4]: 16.4 µg/mL
inhibitory effects on the growth of cancer stem cells (in words) (cancer stem cells): effective inhibitory effects on the growth of cancer stem cells
half maximal inhibitory concentration (IC50) of 4-acetyl-antroquinonol B [5]: 12.37 µg/mL
half maximal inhibitory concentration (IC50) of 4-acetyl-antroquinonol B [6]: 20.77 µg/mL

IC50 ([7]; read-out: Taxol IC50): 0.0317 µg/mL
IC50 ([8]; read-out: Taxol IC50): 0.0102 µg/mL
IC50 ([9]; read-out: Taxol IC50): 0.0207 µg/mL
IC50 (breast cancer stem cells; read-out: Taxol IC50): 0.00983 µg/mL
IC50 ([10]; read-out: Taxol IC50): 0.0335 µg/mL
IC50 (lung cancer stem cells; Homo sapiens, read-out: Taxol IC50): 0.0137 µg/mL
SMILES: CC(=O)O[C@H]1C(=O)[C@@]2(C)[C@H]([C@H](OC(=O)c3ccccc3)[C@]3(O)C[C@H](OC(=O)[C@H](O)[C@@H](NC(=O)c4ccccc4)c4ccccc4)C(C)=C1C3(C)C)[C@]1(OC(C)=O)CO[C@@H]1C[C@@H]2O [Taxol, Paclitaxel]

SMILES: N.N.[Cl][Pt][Cl] [Cisplatin, cis-diammineplatinum(II) dichloride]
Cisplatin IC50 [7]: 42.83 µg/mL
Cisplatin IC50 [8]: 18.87 µg/mL
Cisplatin IC50 [9]: 23.33 µg/mL
Cisplatin IC50 (breast cancer stem cells): 20.23 µg/mL
Cisplatin IC50 [10]: 40.15 µg/mL
Cisplatin IC50 (lung cancer stem cells): 17.98 µg/mL
